pIC50: −log10 of the molar value.
Assays:
DNA gyrase subunit B [1] = target: DNA gyrase subunit B (Escherichia coli, UniProt P0AES6)
Description: Inhibition of Escherichia coli DNA gyrase B ATP binding site assessed as reduction in supercoiling of relaxed pNO1 DNA after 30 mins in presence of biotinylated oligonucleotide by sybrGOLD staining based fluorescence assay

DNA gyrase subunit B [2] = target: DNA gyrase subunit B (Staphylococcus aureus, UniProt P0A0K8)
Description: Inhibition of Staphylococcus aureus DNA gyrase B ATP binding site assessed as reduction in supercoiling of relaxed pNO1 DNA after 30 mins in presence of biotinylated oligonucleotide by sybrGOLD staining based fluorescence assay

Enterococcus faecalis = test: microbe, parasite or virus in culture; conditions: ATCC 29212, 24 h, read-out: GI
Description: Growth inhibition of Enterococcus faecalis ATCC 29212 at 50 uM after 24 hrs by broth microdilution method

Escherichia coli [3] = test: Antibacterial activity against Escherichia coli ECM1194 lacking tolC gene by broth microdilution method; format: functional
Escherichia coli [4] = test: Antibacterial activity against wild type Escherichia coli ECM1194 by broth microdilution method; format: functional
Escherichia coli [5] = test: Growth inhibition of Escherichia coli ATCC 25922 at 50 uM after 24 hrs by broth microdilution method; format: functional; conditions: ATCC 25922, 24 h, read-out: GI
Pseudomonas aeruginosa = test: Growth inhibition of Pseudomonas aeruginosa ATCC 27853 at 50 uM after 24 hrs by broth microdilution method; format: functional; conditions: ATCC 27853, 24 h, read-out: GI

Structure (SMILES) | pIC50 (DNA gyrase subunit B [1]) | pIC50 (DNA gyrase subunit B [2]) | further results
CCOC(=O)C(=O)Nc1nc2ccc(NC(=O)c3cc(Br)c(Br)[nH]3)cc2s1 | 7.09 | < 4.00 | 
Nc1ccc2nc(NC(=O)c3cc(Br)c(Br)[nH]3)sc2c1 | 5.70 | < 4.00 | 
COC(=O)CCC(=O)Nc1ccc2nc(NC(=O)c3cc(Cl)c(Cl)[nH]3)sc2c1 | 4.46 | < 4.00 | 
COC(=O)CC(=O)Nc1nc2ccc(NC(=O)c3cc(Cl)c(Cl)[nH]3)cc2s1 | 5.10 | < 4.00 | 
COC(=O)CC(=O)Nc1ccc2nc(NC(=O)c3cc(Br)c(Br)[nH]3)sc2c1 | 5.70 | < 4.00 | 
CCOC(=O)C(=O)Nc1ccc2nc(NC(=O)c3cc(Cl)c(Cl)[nH]3)sc2c1 | < 4.00 | < 4.00 | 
O=C(O)CCC(=O)Nc1nc2ccc(NC(=O)c3cc(Br)c(Br)[nH]3)cc2s1 | 7.24 | < 4.00 | 
Nc1ccc2nc(NC(=O)c3cc(Cl)c(Cl)[nH]3)sc2c1 | < 4.00 | < 4.00 | 

Further lines, with some results ahead:

pIC50 (DNA gyrase subunit B [1]) | pIC50 (DNA gyrase subunit B [2]) | Structure (SMILES) | further results
6.62 | < 4.00 | COC(=O)CC(=O)Nc1nc2ccc(NC(=O)c3cc(Br)c(Br)[nH]3)cc2s1 | 
7.42 | < 4.00 | O=C(O)C(=O)Nc1nc2ccc(NC(=O)c3cc(Br)c(Br)[nH]3)cc2s1 | 
7.48 | < 4.00 | O=C(O)CCC(=O)Nc1ccc2nc(NC(=O)c3cc(Br)c(Br)[nH]3)sc2c1 | 
6.06 | < 4.00 | COC(=O)CCC(=O)Nc1nc2ccc(NC(=O)c3cc(Br)c(Br)[nH]3)cc2s1 | 
6.37 | 4.03 | O=C(O)CCC(=O)Nc1ccc2nc(NC(=O)c3cc(Cl)c(Cl)[nH]3)sc2c1 | 
6.92 | 5.07 | O=C(O)CC(=O)Nc1ccc2nc(NC(=O)c3cc(Cl)c(Cl)[nH]3)sc2c1 | 
6.66 | < 4.00 | COC(=O)CC(=O)Nc1ccc2nc(NC(=O)c3cc(Cl)c(Cl)[nH]3)sc2c1 | 
5.74 | < 4.00 | CCOC(=O)C(=O)Nc1nc2ccc(NC(=O)c3cc(Cl)c(Cl)[nH]3)cc2s1 | inhibition of growth at 50 µM (Enterococcus faecalis): 47%
5.15 | < 4.00 | COC(=O)CCC(=O)Nc1ccc2nc(NC(=O)c3cc(Br)c(Br)[nH]3)sc2c1 | 
 | 6.29 | O=C(O)C(=O)Nc1ccc2nc(NC(=O)c3cc(Cl)c(Cl)[nH]3)sc2c1 | 
4.54 | < 4.00 | CCOC(=O)C(=O)Nc1ccc2nc(NC(=O)c3cc(Br)c(Br)[nH]3)sc2c1 | 
6.85 | 5.25 | O=C(O)CC(=O)Nc1ccc2nc(NC(=O)c3cc(Br)c(Br)[nH]3)sc2c1 | MIC (Escherichia coli [3]): < 16 µg/mL; MIC (Escherichia coli [4]): > 256 µg/mL; inhibition of growth at 50 µM (Escherichia coli [5]): 12%; inhibition of growth at 50 µM (Pseudomonas aeruginosa): 11%; inhibition of growth at 50 µM (Enterococcus faecalis): 59%
